“Also recorded” adds a separate entry of the source. Where two headings read alike, the source gives them in different places.
Tests used:
TSC2 (S939) = experiment: Western blot of phosphorylated TSC2 (S939); assay type: cell-based; conditions: HCC1954, PD0325901 1 μM, GSK1120212 50 nM, ± BYL719, 4 h
pNDRG1 (T346) = experiment: Western blot of NDRG1 phosphorylation (T346); assay type: cell-based
Protocol: A) SGK1 mRNA levels in breast cancer cell lines sensitive or resistant to BYL719 (n=27). B) SGK1 mRNA levels in PIK3CA-mutant breast cancer cell lines sensitive or resistant to BYL719. C) Western blot of SGK1, SGK2, SGK3 and phosphorylated NDRG1 in a panel of PIK3CA—mutant breast cancer cell lines sensitive or resistant to BYL719. D) Western blot for NDRG1 and phosphorylated NDRG1 (T346) in BYL719-sensitive and -resistant breast cancer cell lines treated with BYL719 (1 μM) for 4 h. […] P values are calculated using Student's t-test. Error bars are ±SEM.
A) Dose-response curves from MDA-MB-361 cells transduced with pLenti7.3-LacZ or pLenti7.3-SGK1 (Δ60, S422D) treated with increasing concentrations of BYL719 for 6 days. B) Western blot analysis of LacZ and SGK1 MDA-MB-361 cells treated with BYL719 (1 μM) for 4 h. […] The DFG motif amino acids are indicated (D240, F241, G242). […] Hydrogen bonds are shown as dotted lines. […] L) IHC analysis of tumors from K collected at the end of the experiment. M) Top panel: growth curves of HCC1954 cells stably expressing doxycycline-inducible control (REN) or SGK1 knockdown treated with increasing concentrations of BYL719 for 6 days. Bottom panel: Western blot analysis of GFP-sorted control (REN) and SGK1 shRNA cells treated with BYL719 (1 μM) for 4 h. P values are calculated using Student's t-test. Error bars are ±SEM.
(§1) Then, membranes were probed using specific antibodies.

pRSK2 (S227) = experiment: Western blot of phosphorylated RSK2 (S227), PDK1 target; assay type: cell-based; conditions: HCC1954 and JIMT1, 1 μM
Protocol: A) Dose-response curves from HCC1954 or JIMT1 shGFP and shPDK1 cells treated with BYL719 for 6 days. […] Staurosporine is used as a positive control (1 μM; 4 h). E) HCC1954 shGFP and shPDK1 in vivo xenograft treated with Vehicle or BYL719 (n=10/arm). F) IHC analysis of tumors from E collected at the end of the experiment. […] Staurosporine is used as a positive control (1 μM, 4 h). […] L) IHC analysis of tumors from K collected at the end of the experiment. M, N) JIMT1 in vivo xenograft tested as described in (K) and (L) for HCC1954 in vivo xenograft. P values are calculated using Student's t-test. Error bars are ±SEM.
as §1

mTORC1 = experiment: Western blot of mTORC1 signaling (pS6K, pS6, p4EBP1); assay type: cell-based; conditions: for sustained S6 phosphorylation: HCC1954 cells, presence or absence of BYL719 (1 μM)
Source text: (§2) For western blot analysis proteins were extracted in RIPA buffer supplemented with protease and phosphatase inhibitors (Roche). Protein lysates were separated using SDS-PAGE gels and transferred to a PVDF membrane. Then, membranes were probed using specific antibodies. PDK1, pAKT (S473), pAKT (T308), pS6K (T389), pS6 (S240/4), pS6 (235/6), p4EBP1 (S65), PARP, Actin, pRSK (S227), cleaved Caspase 3, pFOXO1/3 (T24/T32), SGK1, SGK2, SGK3, pNDRG1 (T346), NDRG1, Flag, HA, and phospho-RXRXX(S/T) (SEQ ID NO: 1) were from Cell Signaling Technology (CST).

SGK2 = SGK2 (Homo sapiens, UniProt Q9HBY8); experiment: in vitro SGK2 kinase activity assay; assay type: biochemical
SGK3 = SGK3 (Homo sapiens, UniProt Q96BR1); experiment: in vitro SGK3 kinase activity assay; assay type: biochemical
S6K1 = experiment: recombinant in vitro kinase assay of S6K ([…] peptide substrate); assay type: biochemical
S6K (ΔCT T389E) = experiment: S6K kinase assay in 293T cells overexpressing constitutively active S6K; assay type: cell-based
mTOR = mTOR (Homo sapiens, UniProt P42345); conditions: read-out: IC50, mTOR; 4EBP1 as substrate
HCC1954 xenografts = experiment: HCC1954 in vivo xenograft; set-up: species or system mice; conditions: HCC1954 xenografts, end of the experiment
Protocol: Animals were maintained and treated in accordance with Institutional Guidelines of Memorial Sloan Kettering Cancer Center (Protocol number 12-10-019). 5×10^6 cells in 1:1 PBS/Matrigel (Corning) were injected subcutaneously into six-week-old female athymic Foxn1^nu nude mice.
When tumors reached a volume of ˜150 mm^3 mice were randomized, treated, and tumors were measured twice a week during a month. At least 10 tumors per group were used in all the studies. […] Tumors were harvested at the end of the experiment three hours after the last dosage, fixed in 4% formaldehyde in PBS, and paraffin-embedded. […] Primary staining was followed by 60 minutes incubation with biotinylated goat anti-rabbit IgG (Vector labs) 1:200. Blocker D, Streptavidin-HRP and DAB detection kit (Ventana Medical Systems) were used according to the manufacturer instructions.

CaCO2 cells = conditions: cited from earlier work
SGK1 = SGK1 (Homo sapiens, UniProt O00141); experiment: ATP-competition assay; conditions: ATP at 100, 250, 350 and 500 μM
Source text: Recombinant GST-S6 was used as a substrate and phosphorylated S6 (S235/6) antibody was used for the detection of phosphorylated substrate by Western blot.

AKT1 = AKT1 (Homo sapiens, UniProt P31749); experiment: selectivity screening, panel of 140 kinases; conditions: 1 μM
Protocol: (§3) IC50 value is indicated. […] Recombinant GST-S6 was used as a substrate and phosphorylated S6 (S235/6) antibody was used for the detection of phosphorylated substrate by Western blot. IC50 value is indicated. […] Everolimus was used as a positive control at 200 nM. Error bars are ±SEM. […] Quantification of the m^7GTP-precipitated proteins is indicated in fold change. AZD8055 is used as a control at 1 μM). […] Error bars are ±SEM.

PDK1 = PDK1 (Homo sapiens, UniProt O15530); experiment: selectivity screening, panel of 140 kinases; conditions: 1 μM
Protocol: as §3

PKC = experiment: selectivity screening, panel of 140 kinases; conditions: 1 μM
Protocol: as §3

RSK = experiment: selectivity screening, panel of 140 kinases; conditions: 1 μM
Protocol: as §3

S6K = S6K (Homo sapiens, UniProt P23443); experiment: selectivity screening, panel of 140 kinases; conditions: 1 μM
Protocol: as §3

S6K signaling [1] = conditions: up to 30 μM, 4 h, TSC2 KO mouse fibroblasts
Protocol: (§4) Recombinant GST-S6 was used as a substrate and phosphorylated S6 (S235/6) antibody was used for the detection of phosphorylated substrate by Western blot. […] Everolimus was used as a positive control at 200 nM. Error bars are ±SEM. […] Quantification of the m^7GTP-precipitated proteins is indicated in fold change. AZD8055 is used as a control at 1 μM). […] Error bars are ±SEM.
as §2

S6K signaling [2] = experiment: Western blot of S6K targets in fibroblasts of a TSC2-null lymphangioleiomyomatosis patient; conditions: up to 30 μM, 4 h, TSC2-null LAM patient fibroblasts
Protocol: as §4, §2

Sequence of S6K (P23443 whole entry): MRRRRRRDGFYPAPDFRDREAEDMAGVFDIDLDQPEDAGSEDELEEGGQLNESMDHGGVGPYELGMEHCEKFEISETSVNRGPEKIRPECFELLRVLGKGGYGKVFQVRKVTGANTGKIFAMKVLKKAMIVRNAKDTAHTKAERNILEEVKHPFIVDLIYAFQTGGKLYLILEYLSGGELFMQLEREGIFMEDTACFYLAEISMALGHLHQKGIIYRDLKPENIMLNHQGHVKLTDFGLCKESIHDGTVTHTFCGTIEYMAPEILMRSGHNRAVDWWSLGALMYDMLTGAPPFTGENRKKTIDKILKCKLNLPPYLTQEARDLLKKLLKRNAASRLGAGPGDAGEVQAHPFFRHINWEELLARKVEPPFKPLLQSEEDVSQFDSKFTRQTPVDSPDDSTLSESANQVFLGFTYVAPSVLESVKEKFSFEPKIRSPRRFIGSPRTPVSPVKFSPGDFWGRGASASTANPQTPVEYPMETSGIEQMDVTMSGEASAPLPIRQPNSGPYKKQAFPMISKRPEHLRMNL
Sequence of SGK1 (O00141 whole entry): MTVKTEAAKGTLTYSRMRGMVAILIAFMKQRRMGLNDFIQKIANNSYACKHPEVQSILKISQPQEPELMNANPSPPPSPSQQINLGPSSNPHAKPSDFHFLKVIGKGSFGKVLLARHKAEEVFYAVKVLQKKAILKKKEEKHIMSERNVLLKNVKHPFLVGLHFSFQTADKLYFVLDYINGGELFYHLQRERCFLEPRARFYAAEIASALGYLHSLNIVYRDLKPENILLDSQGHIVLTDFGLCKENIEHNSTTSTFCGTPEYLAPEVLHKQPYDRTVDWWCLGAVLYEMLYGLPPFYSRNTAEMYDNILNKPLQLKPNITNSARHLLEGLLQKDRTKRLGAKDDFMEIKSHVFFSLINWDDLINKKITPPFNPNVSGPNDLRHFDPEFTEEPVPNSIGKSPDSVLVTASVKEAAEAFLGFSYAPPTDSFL
Sequence of AKT1 (P31749 whole entry): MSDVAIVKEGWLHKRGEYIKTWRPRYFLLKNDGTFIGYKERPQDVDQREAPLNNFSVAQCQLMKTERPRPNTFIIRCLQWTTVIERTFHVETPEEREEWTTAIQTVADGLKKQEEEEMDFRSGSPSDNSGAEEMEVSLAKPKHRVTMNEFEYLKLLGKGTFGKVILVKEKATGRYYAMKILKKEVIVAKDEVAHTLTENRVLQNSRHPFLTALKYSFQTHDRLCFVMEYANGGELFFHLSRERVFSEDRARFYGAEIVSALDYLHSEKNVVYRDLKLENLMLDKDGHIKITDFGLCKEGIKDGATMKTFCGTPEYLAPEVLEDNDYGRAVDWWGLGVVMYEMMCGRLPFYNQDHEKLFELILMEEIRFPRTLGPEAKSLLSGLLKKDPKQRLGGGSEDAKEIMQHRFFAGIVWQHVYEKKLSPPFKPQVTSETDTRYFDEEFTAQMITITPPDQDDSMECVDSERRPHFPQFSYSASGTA
Sequence of PDK1 (O15530 whole entry): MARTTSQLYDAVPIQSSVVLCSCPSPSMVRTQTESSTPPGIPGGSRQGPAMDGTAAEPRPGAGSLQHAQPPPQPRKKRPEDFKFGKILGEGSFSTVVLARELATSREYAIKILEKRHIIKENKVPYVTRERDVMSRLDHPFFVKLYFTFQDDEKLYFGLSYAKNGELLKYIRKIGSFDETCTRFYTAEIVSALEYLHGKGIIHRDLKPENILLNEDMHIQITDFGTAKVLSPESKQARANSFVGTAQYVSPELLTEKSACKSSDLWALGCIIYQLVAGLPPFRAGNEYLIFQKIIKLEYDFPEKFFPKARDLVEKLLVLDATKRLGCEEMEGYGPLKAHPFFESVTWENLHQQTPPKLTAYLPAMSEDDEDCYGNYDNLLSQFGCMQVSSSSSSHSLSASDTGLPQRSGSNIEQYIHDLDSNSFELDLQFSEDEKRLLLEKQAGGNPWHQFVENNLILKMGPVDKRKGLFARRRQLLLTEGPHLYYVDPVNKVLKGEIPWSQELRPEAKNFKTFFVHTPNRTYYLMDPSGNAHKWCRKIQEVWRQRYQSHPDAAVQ
Sequence of SGK3 (Q96BR1 whole entry): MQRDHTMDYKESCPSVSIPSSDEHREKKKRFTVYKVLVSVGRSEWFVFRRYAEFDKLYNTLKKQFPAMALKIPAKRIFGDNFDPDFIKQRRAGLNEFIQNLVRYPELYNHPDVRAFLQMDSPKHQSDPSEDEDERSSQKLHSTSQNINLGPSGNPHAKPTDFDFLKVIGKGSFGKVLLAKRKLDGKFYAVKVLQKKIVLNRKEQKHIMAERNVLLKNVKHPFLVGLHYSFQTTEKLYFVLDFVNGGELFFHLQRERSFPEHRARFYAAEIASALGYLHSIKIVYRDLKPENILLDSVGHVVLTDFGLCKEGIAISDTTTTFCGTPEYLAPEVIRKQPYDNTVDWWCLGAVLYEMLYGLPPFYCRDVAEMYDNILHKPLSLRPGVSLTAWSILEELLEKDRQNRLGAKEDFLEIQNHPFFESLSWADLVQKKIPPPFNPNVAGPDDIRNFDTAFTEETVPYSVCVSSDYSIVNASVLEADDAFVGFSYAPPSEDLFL
Sequence of SGK2 (Q9HBY8 whole entry): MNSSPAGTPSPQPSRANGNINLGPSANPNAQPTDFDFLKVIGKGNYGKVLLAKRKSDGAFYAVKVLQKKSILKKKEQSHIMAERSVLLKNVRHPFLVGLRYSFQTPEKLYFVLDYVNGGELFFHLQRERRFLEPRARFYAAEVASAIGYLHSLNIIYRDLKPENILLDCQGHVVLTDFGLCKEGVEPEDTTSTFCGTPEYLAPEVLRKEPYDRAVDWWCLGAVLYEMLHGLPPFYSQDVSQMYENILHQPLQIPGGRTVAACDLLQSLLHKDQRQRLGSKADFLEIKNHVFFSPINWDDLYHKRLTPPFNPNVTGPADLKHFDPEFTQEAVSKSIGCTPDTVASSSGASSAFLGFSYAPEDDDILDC

SMILES: CC(=O)Nc1cccc(-n2c(=O)n(C3CC3)c(=O)c3c(Nc4ccc(I)cc4F)n(C)c(=O)c(C)c32)c1 [GSK1120212]
- TSC2 phosphorylation at S939 (or mTORC1 downstream signaling) (TSC2 (S939)): did not detect changes in TSC2 phosphorylation at S939

SMILES: O=C(NOC[C@H](O)CO)c1ccc(F)c(F)c1Nc1ccc(I)cc1F [PD0325901]
- TSC2 phosphorylation at S939 (or mTORC1 downstream signaling) (TSC2 (S939)): did not detect changes in TSC2 phosphorylation at S939

SMILES: CNc1nc(-c2ccc3c(N)n[nH]c3c2)cc(N2C[C@@H](C(=O)NC3CCCCC3)CC[C@H]2C)n1 [GSK2334470]
- phosphorylation of FOXO3 and NDRG1, added to AZD8055 (pNDRG1 (T346); HCC1954, GSK2334470 1 μM plus AZD8055): marked decrease in the phosphorylation of both FOXO3 and NDRG1
- pRSK2 (S227) (pRSK2 (S227)): appreciably reduced; also recorded: inhibited when cells are treated with GSK2334470 alone or in combination

SMILES: O=CC[C@@H](O)[C@H](O)[C@H](O)CO [2-deoxyglucose]
- sustained S6 phosphorylation (mTORC1): unable to rescue the sustained phosphorylation of S6

SMILES: N#Cc1c(O)c2c(-c3ccc(-c4ccccc4O)cc3)csc2[nH]c1=O [A769662]
- sustained S6 phosphorylation (mTORC1): unable to rescue the sustained phosphorylation of S6

SMILES: Nc1n[nH]c2nc(-c3ccc(NS(=O)(=O)c4cccc(Cl)c4Cl)cc3)cnc12 [SGK1-inh]
- IC50 (SGK2): 2.8 nM
- IC50 (SGK3): 590 nM
- IC50 (S6K1): 33 nM
- IC50 (S6K (ΔCT T389E); 293T cells, HA-S6K (ΔCT T389E), GST-S6 substrate, read-out: IC50, S6K at the cellular level): ~20 µM
- concentrations below which there is no activity towards S6K (S6K (ΔCT T389E); conclusion from cellular S6K assays): 20 to 30 µM
- IC50 (mTOR): > 5 µM
- appropriate concentration to inhibit endogenous SGK1 (NDRG1 phosphorylation) (pNDRG1 (T346); HCC1954 cells, 4 hours, in the presence of BYL719 (1 μM)): 10 µM
- mTORC1 signaling (mTORC1; BYL719-resistant cells (HCC1954, JIMT1), 4 h, BYL719 1 μM, GSK2334470 1 μM, SGK1-inh 10 μM): some activity towards S6K signaling
- pS6 (S240/4) and 4EBP1 (T37/46) in tumors, IHC (HCC1954 xenografts): remained elevated
- permeability (CaCO2 cells): 1.33e-05 cm/s
- effect of increasing ATP on potency (SGK1): decreased the potency
- activity against AKT1 (AKT1): no activity
- activity against PDK1 (PDK1): no activity
- activity against PKC (PKC): no activity
- activity against RSK (RSK): no activity
- activity against S6K (S6K): inhibited
- S6K signaling: pS6 (S235/6), pS6 (S240/4), pmTOR (S2448) (S6K signaling [1]): not able to reduce S6K signaling
- S6K signaling: pS6 (S235/6), pS6 (S240/4), pmTOR (S2448) (S6K signaling [2]): not able to reduce S6K signaling

SMILES: COc1ccc(-c2ccc3c(N4CCOC[C@@H]4C)nc(N4CCOC[C@@H]4C)nc3n2)cc1CO [AZD8055]
- pFOXO3 (T32) and pNDRG1 (T346) levels (pNDRG1 (T346); HCC1954, increasing concentrations, single agent): did not reduce the levels of the substrates pFOXO3 (T32) and pNDRG1 (T346)
